# Experimental data reported in patent US12194033B2, “Glycine receptor modulators and methods of use” (University of Pittsburgh—Of the Commonwealth System of …, priority 2017, dated 2025).
# Values joined by “and” are separate entries in the source; they are usually repeats but may differ in a detail not shown here. Equal values may be shown once.
# Columns and labels:
# [1] = system: TA100 strain Salmonella typhimurium; assay: In vitro Ames test; format: cell-based; details: S9 rat liver extract
# Method: (§1) Toxicity was evaluated using in vitro Ames test and in vivo immune responses flow cytometry. Compound 1 (MJPY1) at each concentration was tested in three 48-well plates using the TA100 strain Salmonella typhimurium and S9 rat liver extract for base-pair substitution mutations. Error bars represent SEM. Significance (p<0.05) was evaluated compared to the control (0 μM) using one-way ANOVA with the Bonferroni post-hoc test. FIGS. 15A and 15B show flow cytometry evaluation of common inflammatory markers in the liver and spleen of mice in response to compound 1 (MJPY1) treatment. Mice received either 2 mg/kg of MJPY1 (right) or vehicle (left) ˜16 hours prior to sacrifice and tissue collection. Significant differences between the treatment and control were observed only for decreased CD11b+ in the liver of mice treated with MJPY1 (p<0.001). […] Results were analyzed by one-way ANOVA with Bonferroni post-hoc test.
# NOR = NOR (Homo sapiens, UniProt P41146); assay: Radioligand binding assay, off-target profiling; details: 10 M MJPY1, mean, n = 4
# NOR, sequence (P41146 whole entry): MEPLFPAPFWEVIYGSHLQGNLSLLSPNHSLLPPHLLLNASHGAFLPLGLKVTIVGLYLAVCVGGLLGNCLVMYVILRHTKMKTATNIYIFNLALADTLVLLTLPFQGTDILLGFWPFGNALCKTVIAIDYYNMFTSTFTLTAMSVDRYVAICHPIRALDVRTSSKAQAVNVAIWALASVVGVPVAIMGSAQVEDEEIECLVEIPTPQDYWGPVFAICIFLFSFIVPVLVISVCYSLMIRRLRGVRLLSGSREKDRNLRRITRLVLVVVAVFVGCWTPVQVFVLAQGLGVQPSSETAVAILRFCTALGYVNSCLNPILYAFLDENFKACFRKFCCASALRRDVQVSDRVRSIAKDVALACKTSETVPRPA
# 4 2-nAChR = 4 2-nAChR (Homo sapiens, UniProt P17787+P43681); assay: Radioligand binding assay, off-target profiling; details: 10 M MJPY1, mean, n = 4
# 4 2-nAChR, sequence (P43681 29-627 limits assumed): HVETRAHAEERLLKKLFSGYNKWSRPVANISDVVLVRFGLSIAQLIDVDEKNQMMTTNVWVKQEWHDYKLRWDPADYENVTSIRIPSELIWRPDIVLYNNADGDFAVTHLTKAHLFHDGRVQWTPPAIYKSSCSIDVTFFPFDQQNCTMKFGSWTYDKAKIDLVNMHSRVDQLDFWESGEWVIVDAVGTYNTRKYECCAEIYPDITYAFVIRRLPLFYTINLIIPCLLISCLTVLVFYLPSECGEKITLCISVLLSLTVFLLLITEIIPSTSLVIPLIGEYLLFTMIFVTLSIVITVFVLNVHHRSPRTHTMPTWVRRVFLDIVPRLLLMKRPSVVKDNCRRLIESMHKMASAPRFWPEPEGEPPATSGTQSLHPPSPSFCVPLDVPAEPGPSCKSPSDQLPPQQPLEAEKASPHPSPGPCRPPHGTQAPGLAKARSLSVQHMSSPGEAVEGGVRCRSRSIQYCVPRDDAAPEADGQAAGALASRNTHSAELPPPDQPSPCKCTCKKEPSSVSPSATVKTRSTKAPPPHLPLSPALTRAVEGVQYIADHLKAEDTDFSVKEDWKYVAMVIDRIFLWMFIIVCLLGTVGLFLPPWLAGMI
# 4 2-nAChR, sequence (P17787 26-502): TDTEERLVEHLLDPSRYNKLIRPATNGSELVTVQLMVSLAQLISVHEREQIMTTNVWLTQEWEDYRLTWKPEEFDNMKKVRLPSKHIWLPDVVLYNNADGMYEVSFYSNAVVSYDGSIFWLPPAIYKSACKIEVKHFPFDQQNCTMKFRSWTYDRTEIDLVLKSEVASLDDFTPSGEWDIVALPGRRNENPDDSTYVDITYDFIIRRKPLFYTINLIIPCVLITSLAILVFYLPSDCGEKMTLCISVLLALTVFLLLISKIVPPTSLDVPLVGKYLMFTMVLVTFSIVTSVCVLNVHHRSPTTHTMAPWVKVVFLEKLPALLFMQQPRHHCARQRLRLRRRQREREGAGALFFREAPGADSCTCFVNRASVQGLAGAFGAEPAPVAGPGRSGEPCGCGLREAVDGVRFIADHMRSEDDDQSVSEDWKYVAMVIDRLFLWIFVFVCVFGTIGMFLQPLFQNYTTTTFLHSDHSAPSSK
# mice = assay: Two-plate thermal preference test (30° C. vs 55° C.); format: in vivo
# Method: Responses to the two-plate thermal preference test were assessed under naïve conditions and 1 hour after administration of 0.2 mg/kg compound 1, 0.1 mg/kg morphine, or 0.2 mg/kg compound 1+0.1 mg/kg morphine. Unrestrained mice were exposed to plates set to normal and hot temperatures (30° C. and 55° C., respectively). Temperature preference was measured by percentage time spent on the hot plate (55° C.) over the course of 4 minutes, where 50% indicates no preference between the two temperatures. […] Error bars designate the standard error of the mean (n≥5).
# Unrestrained mice were exposed to plates set to normal and hot temperatures (30° C. and 55° C., respectively) for 10 minutes. […] Error bars designate the standard error of the mean (n=4).
# The percent inactivity on the 55° C. plate (mean±SEM) is a measure of heat tolerance. Significance was assessed by one-way ANOVA with LSD post-hoc test.
# hERG = hERG (Homo sapiens, UniProt Q12809); assay: Radioligand binding assay, off-target profiling; details: 10 µM MJPY1, mean, n = 4
# hERG, sequence (Q12809 whole entry): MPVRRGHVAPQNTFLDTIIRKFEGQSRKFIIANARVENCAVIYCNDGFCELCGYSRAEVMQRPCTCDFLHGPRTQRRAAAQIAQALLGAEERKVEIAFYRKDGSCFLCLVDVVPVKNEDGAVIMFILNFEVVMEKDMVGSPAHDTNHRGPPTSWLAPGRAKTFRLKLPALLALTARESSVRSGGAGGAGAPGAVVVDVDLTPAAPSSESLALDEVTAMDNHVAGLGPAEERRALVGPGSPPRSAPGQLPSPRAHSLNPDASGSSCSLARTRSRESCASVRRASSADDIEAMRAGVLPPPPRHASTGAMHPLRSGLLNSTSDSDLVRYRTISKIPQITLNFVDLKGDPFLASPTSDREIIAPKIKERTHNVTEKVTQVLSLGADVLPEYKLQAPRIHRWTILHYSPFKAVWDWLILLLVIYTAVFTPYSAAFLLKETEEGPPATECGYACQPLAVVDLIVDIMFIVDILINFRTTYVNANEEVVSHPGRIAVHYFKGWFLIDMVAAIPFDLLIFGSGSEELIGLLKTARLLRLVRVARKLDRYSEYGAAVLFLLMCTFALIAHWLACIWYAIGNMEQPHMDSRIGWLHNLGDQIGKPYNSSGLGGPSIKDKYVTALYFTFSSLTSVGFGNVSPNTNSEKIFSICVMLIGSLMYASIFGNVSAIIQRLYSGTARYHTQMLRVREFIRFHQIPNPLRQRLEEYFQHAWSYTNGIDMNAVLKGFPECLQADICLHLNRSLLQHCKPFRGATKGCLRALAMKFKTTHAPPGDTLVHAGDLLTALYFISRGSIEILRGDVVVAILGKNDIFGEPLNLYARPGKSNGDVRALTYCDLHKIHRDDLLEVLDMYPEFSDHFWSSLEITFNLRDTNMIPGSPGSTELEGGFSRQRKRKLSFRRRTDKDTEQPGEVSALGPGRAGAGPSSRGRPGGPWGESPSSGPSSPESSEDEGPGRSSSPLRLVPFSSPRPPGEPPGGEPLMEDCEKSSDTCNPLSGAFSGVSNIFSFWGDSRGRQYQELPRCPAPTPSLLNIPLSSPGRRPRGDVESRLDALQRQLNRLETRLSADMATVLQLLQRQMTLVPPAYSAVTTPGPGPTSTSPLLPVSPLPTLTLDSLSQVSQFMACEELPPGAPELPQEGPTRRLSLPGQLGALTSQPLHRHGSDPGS
# KOR = KOR (Homo sapiens, UniProt P41145); assay: Radioligand binding assay, off-target profiling; details: 10 M MJPY1, mean, n = 4
# KOR, sequence (P41145 whole entry): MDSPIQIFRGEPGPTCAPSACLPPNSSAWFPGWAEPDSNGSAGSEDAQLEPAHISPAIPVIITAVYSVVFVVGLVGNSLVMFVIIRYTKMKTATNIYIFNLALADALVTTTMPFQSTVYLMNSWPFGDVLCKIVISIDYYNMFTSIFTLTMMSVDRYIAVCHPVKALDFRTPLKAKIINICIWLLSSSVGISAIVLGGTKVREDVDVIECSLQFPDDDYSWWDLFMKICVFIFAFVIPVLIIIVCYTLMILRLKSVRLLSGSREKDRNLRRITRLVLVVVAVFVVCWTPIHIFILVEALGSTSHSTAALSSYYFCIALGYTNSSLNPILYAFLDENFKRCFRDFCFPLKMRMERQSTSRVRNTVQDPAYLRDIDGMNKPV
# NMDAR = assay: Radioligand binding assay, off-target profiling; details: 10 M MJPY1, mean, n = 4
# CD1 mice = assay: Hargreaves test under CFA-induced hyperalgesic conditions in CD1 mice; format: in vivo
# Method: Under CFA-induced hyperalgesic conditions, the maximum possible effect, % MPE=(response−baseline)/(cut-off time−baseline), was measured for the application of compound 1 alone (0.05 mg/kg, blue, n=12; 0.01 mg/kg, orange, n=4), morphine alone (0.1 mg/kg, green, n=8), and compound 1 with morphine at three different dosage combinations: 0.05 mg/kg compound 1 with 0.1 mg/kg morphine (light blue, n=6), 0.01 mg/kg compound 1 with 0.1 mg/kg morphine (pink, n=10), and 0.01 mg/kg compound 1 with 0.01 mg/kg morphine (red, n=4). […] Error bars designate the standard error of the mean.
# 0.05 mg/kg compound 1 was tested for tolerance in CFA-treated mice (red). Under CFA-induced hyperalgesic conditions (24 hours post-application of CFA), 0.05 mg/kg compound 1 was administered to CD1 mice and responses to the Hargreaves test were measured immediately after the initial injection (application time=0) and again after a repeated dose given 1.5 hours (FIG. 7A) or 24 hours (FIG. 7B) after the effects of the first dose wore off. The black circles represent the responses of naïve mice (i.e., no administration of compound 1 or CFA), and the red circles represent the responses of mice receiving compound 1 under CFA-induced hyperalgesic conditions. […] Error bars designate the standard error of the mean (n=4).
# Responses of CD1 mice to the Hargreaves test were assessed after application of 0.1 mg/kg of the indicated compounds (black) or vehicle (white) under CFA-induced hyperalgesic conditions as shown in FIGS. 8A-8H. The assessed compounds were compounds 1 (8A), 2 (8B), 3 (8C), 4 (8D), 5 (8E), 6 (8F), 7 (8G), and 8 (8H). […] Error bars designate the standard error of the mean (n≥4).
# Dose response curves from the Hargreaves test in mice with a CFA-inflamed left hind paw at 1.5 and 2 hr after intraperitoneal injection of compound 1. Percent Maximum Possible Effect (% MPE) was calculated from paw withdrawal latencies.
# Tolerance to compound 1 (MJPY1) and compound 3 (MJPY2) was measured by repeated dosing in the Hargreaves Test. […] Mice (n=6/group) received repeated i.p. injections of vehicle or 0.1 mg/kg compound 1 (MJPY1) or compound 3 (MJPY2) once a day for 5 days. CFA inflammation was induced on day 4, and PWL was measured 0.5 hr before and every 10 min after treatment on day 5. Data were binned to 30-min blocks (mean±SEM).
# [2] = system: inflammatory markers in the liver and spleen of mice; assay: In vivo immune responses by flow cytometry; details: 2 mg/kg, ~16 hours prior to sacrifice
# Method: as §1
smiles,measurement,setting,value
"NC(=O)c1cccc(CNC(=O)c2ccc3c4c(cccc24)CC3)c1 [compound 1, N-[(3-carbamoylphenyl)-methyl]-1,2-dihydroacenaphthylene-5-carboxamide]",mutagenic activity (base-pair substitution mutations),[1],little mutagenic activity
same,% Inhibition NOR,NOR,−16.8%
same,% Inhibition 4 2-nAChR,4 2-nAChR,−1.8%
same,analgesic action compared with morphine (percent inactivity on the 55° C. plate),"mice; 0.1 mg/kg i.p., male CD1 mice, 24 hr after CFA, 1 hr after treatment, same dose",better than morphine
same,percentage time spent on the hot plate (55° C.) compared to naïve mice,"mice; normal nociception, 1 hour after 0.2 mg/kg compound 1, 0.1 mg/kg morphine, or both, 4 minutes",no significant analgesic response
same,inhibition at 10 µM,hERG,-19.5%
same,% Inhibition KOR,KOR,5.0%
same,% Inhibition NMDAR,NMDAR,−2.4%
same,"tolerance (time to paw withdrawal, first vs second dosing)","CD1 mice; 0.05 mg/kg, CD1 mice, CFA, repeated dose 1.5 or 24 hours after first dose wore off",No tolerance
same,tolerance after repeated dosing (PWL),"CD1 mice; 0.1 mg/kg i.p. once a day for 5 days, CFA on day 4",negligible tolerance
same,response time for paw withdrawal compared to vehicle,"CD1 mice; 0.1 mg/kg, CD1 mice, CFA-induced hyperalgesic conditions",increase in the response time
same,"EC50 for inflammatory pain (% MPE dose response, Hill fit)","CD1 mice; CFA-inflamed left hind paw, 1.5 and 2 hr after intraperitoneal injection (both time points), CD1 mice",~0.030 mg/kg and ~0.03 mg/kg
same,overall immune response to treatment,[2]; liver and spleen,minimal immune response
same,CD11b+ in the liver vs vehicle,[2]; p<0.001,decreased
